Source: ChEMBL document CHEMBL5113413, “New peptidomimetic rhodesain inhibitors with improved selectivity towards human cathepsins” (Eur J Med Chem, 2022)
Active and inactive are the calls of the source. The calls are words filed in the database; no cut-off is given here.

Columns and labels:
Cathepsin B [1] = biological target: T1, Cathepsin B (Homo sapiens, UniProt P07858); experiment: Inhibition of human Cathepsin B at 20 uM using Cbz-Phe-Arg-AMC as fluorogenic substrate by fluorometric assay
[2] = Cytotoxicity against mouse J774.1 cells assessed as reduction in cell viability incubated for 48 hrs by MTT assay; type: toxicity, cell-based
[3] = system: Trypanosoma brucei brucei; experiment: Antitrypanosomal activity against Trypanosoma brucei brucei BS449 assessed as luminescence incubated for 48 hrs by ATPlite assay; type: functional, organism-based; details: BS449, 48 h
[4] = biological target: Rhodesain (Trypanosoma brucei rhodesiense) (UniProt Q95PM0); experiment: Irreversible inhibition of Trypanosoma brucei rhodesiense rhodesain assessed as no recovery of enzyme activity preincubated for 30 mins followed by substrate addition using Cbz-Phe-Arg-AMC as fluorogenic substrate by fluorometric 100-fold dilution assay
Procathepsin L [5] = biological target: T2, Procathepsin L (Homo sapiens, UniProt P07711); experiment: Inhibition of human Cathepsin L at 20 uM using Cbz-Phe-Arg-AMC as fluorogenic substrate by fluorometric assay
Target sequence in this assay (P07711 114-333 limits assumed): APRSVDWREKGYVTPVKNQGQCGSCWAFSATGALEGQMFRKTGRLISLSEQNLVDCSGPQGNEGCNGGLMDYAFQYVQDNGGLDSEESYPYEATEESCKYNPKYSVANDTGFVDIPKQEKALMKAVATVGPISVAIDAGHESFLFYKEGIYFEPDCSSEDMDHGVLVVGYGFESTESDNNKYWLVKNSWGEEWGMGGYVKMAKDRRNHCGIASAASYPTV

[6] = biological target: Rhodesain (Trypanosoma brucei rhodesiense) (UniProt Q95PM0); experiment: Reversible inhibition of Trypanosoma brucei rhodesiense rhodesain assessed as recovery of enzyme activity preincubated for 30 mins followed by substrate addition using Cbz-Phe-Arg-AMC as fluorogenic substrate by fluorometric 100-fold dilution assay
Rhodesain = Rhodesain (Trypanosoma brucei rhodesiense, UniProt Q95PM0); experiment: Irreversible inhibition of Trypanosoma brucei rhodesiense rhodesain assessed as inhibition constant using Cbz-Phe-Arg-AMC as fluorogenic substrate by fluorometric assay
Cathepsin B [7] = biological target: T1, Cathepsin B; experiment: Irreversible inhibition of human Cathepsin B assessed as inhibition constant using Cbz-Phe-Arg-AMC as fluorogenic substrate by fluorometric assay
Cathepsin B [8] = biological target: T1, Cathepsin B; experiment: Irreversible inhibition of human Cathepsin B assessed as second order rate constant using Cbz-Phe-Arg-AMC as fluorogenic substrate by fluorometric assay
[9] = biological target: Genome polyprotein (dengue virus type 2) (UniProt P29990); experiment: Inhibition of Dengue virus NS2B-NS3 protease at 11 uM using Boc-Gly-Arg-Arg-AMC as fluorogenic substrate by fluorometric assay
[10] = biological target: Rhodesain (Trypanosoma brucei rhodesiense) (UniProt Q95PM0); experiment: Irreversible inhibition of Trypanosoma brucei rhodesiense rhodesain assessed as second order rate constant using Cbz-Phe-Arg-AMC as fluorogenic substrate by fluorometric assay
Procathepsin L [11] = biological target: T2, Procathepsin L; experiment: Irreversible inhibition of human Cathepsin L assessed as inhibition constant using Cbz-Phe-Arg-AMC as fluorogenic substrate by fluorometric assay
Target sequence in this assay (P07711 whole entry): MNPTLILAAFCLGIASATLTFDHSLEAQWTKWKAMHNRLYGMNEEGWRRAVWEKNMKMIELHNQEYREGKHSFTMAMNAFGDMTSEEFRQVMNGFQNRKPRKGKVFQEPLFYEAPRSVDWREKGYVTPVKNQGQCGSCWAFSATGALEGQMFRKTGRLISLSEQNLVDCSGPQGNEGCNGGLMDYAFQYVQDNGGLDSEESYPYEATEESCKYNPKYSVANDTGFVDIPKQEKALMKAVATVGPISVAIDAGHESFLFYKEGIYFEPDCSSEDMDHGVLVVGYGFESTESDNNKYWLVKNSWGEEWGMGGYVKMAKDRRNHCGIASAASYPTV

[12] = biological target: Rhodesain (Trypanosoma brucei rhodesiense) (UniProt Q95PM0); experiment: Irreversible inhibition of Trypanosoma brucei rhodesiense rhodesain assessed as Kinact using Cbz-Phe-Arg-AMC as fluorogenic substrate by fluorometric assay
[13] = biological target: T3, 20S proteasome (Homo sapiens) (UniProt P49721+P20618+P28074+P28062+P28065+P28072+P25786+P25787+P25788+P25789+P28066+P60900+O14818+Q8TAA3+P40306+A5LHX3+P49720+P28070+Q99436); experiment: Inhibition of human 20S proteasome caspase-like activity at 11 uM using Cbz-Leu-Leu-Glu-AMC as fluorogenic substrate by fluorometric assay; type: protein-complex assay
Cathepsin B [14] = biological target: T1, Cathepsin B; experiment: Irreversible inhibition of human Cathepsin B assessed as Kinact using Cbz-Phe-Arg-AMC as fluorogenic substrate by fluorometric assay
Procathepsin L [15] = biological target: T2, Procathepsin L; experiment: Irreversible inhibition of human Cathepsin L assessed as Kinact using Cbz-Phe-Arg-AMC as fluorogenic substrate by fluorometric assay
Target sequence in this assay (P07711 114-333 limits assumed): as the sequence (P07711 114-333 limits assumed) above

Procathepsin L [16] = biological target: T2, Procathepsin L; experiment: Irreversible inhibition of human Cathepsin L assessed as second order rate constant using Cbz-Phe-Arg-AMC as fluorogenic substrate by fluorometric assay
Target sequence in this assay (P07711 114-333 limits assumed): as above

[17] = biological target: Rhodesain (Trypanosoma brucei rhodesiense) (UniProt Q95PM0); experiment: Inhibition of Trypanosoma brucei rhodesiense rhodesain at 20 uM using Cbz-Phe-Arg-AMC as fluorogenic substrate by fluorometric assay
[18] = biological target: T3, 20S proteasome (Homo sapiens); experiment: Inhibition of human 20S proteasome chymotrypsin-like activity at 11 uM using Succ-Leu-Leu-Val-Tyr-AMC as fluorogenic substrate by fluorometric assay; type: protein-complex assay
[19] = biological target: T3, 20S proteasome (Homo sapiens); experiment: Inhibition of human 20S proteasome trypsin-like activity at 11 uM using Boc-Leu-Arg-Arg-AMC as fluorogenic substrate by fluorometric assay; type: protein-complex assay

Chain of Rhodesain (Q95PM0 whole entry): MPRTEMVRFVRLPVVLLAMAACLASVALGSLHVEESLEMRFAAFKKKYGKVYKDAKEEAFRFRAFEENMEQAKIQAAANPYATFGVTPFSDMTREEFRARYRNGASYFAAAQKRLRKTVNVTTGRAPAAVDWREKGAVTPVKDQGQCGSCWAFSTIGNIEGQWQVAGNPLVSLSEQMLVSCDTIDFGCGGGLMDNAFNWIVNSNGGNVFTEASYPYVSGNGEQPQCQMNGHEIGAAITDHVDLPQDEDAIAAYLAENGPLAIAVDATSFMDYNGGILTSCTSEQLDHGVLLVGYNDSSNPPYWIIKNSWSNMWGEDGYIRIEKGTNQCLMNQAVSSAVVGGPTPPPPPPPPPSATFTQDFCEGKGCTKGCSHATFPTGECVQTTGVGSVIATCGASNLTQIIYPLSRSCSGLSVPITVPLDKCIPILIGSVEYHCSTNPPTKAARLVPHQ
Chain of Rhodesain (Trypanosoma brucei rhodesiense) (Q95PM0 1-450): as the sequence (Q95PM0 whole entry) above

Compound | inhibition (Cathepsin B [1]) [%] | CC50 at 48 h [2] [nM] | EC50 [3] [nM] | Ki (Rhodesain) [nM] | Second-order inactivation rate constant (kinact/Ki) [10] | Kinact [12] [s⁻¹] | other results
O=C(NCc1ccccc1C(=O)N[C@H](/C=C(\F)S(=O)(=O)Oc1ccccc1)CCc1ccccc1)c1ccc2c(c1)OCCO2 | < 10 | > 100000 | 3000 | 379 | – | – | inhibition [4]: Active; inhibition (Procathepsin L [5]): 23%; inhibition [6]: Active
O=C(NCc1ccccc1C(=O)N[C@H](/C=C/S(=O)(=O)c1ccccc1)CCc1ccccc1)c1cccc(O)c1 | – | 36000 | 3300 | 651 | – | – | –
CC(=O)NCc1ccccc1C(=O)N[C@H](/C=C/S(=O)(=O)c1ccccc1)CCc1ccccc1 | – | 48000 | 13500 | 4680 | – | – | –
O=C(NCc1ccccc1C(=O)N[C@H](/C=C/S(=O)(=O)c1ccccc1)CCc1ccccc1)c1cc(F)cc(F)c1 | – | – | – | 109 | 1.59 10^5/M/s | 0.0173 | Ki (Cathepsin B [7]): 3040 nM; Kdiss (Cathepsin B [8]): 7.24 10^2/M/s; inhibition [9]: 11%; Ki (Procathepsin L [11]): 1890 nM; inhibition [13]: 24%; Kinact (Cathepsin B [14]): 0.0022 s⁻¹; Kinact (Procathepsin L [15]): 0.0045 s⁻¹; Second-order inactivation rate constant (Procathepsin L [16]): 2.38 10^3/M/s
CN1CCN(C(=O)NCc2ccccc2C(=O)N[C@H](/C=C(\F)S(=O)(=O)c2ccccc2)CCc2ccccc2)CC1 | – | – | – | – | – | – | inhibition [17]: 18%
O=C(NCc1ccccc1C(=O)N[C@H](/C=C/S(=O)(=O)c1ccccc1)CCc1ccccc1)c1ccc2c(c1)OCCO2 | < 10 | – | – | 504 | 0.01 10^5/M/s | 0.0005 | inhibition (Procathepsin L [5]): 41%
O=C(NCc1ccccc1C(=O)N[C@H](/C=C(\F)S(=O)(=O)Cc1ccccc1)CCc1ccccc1)c1ccncc1 | – | – | – | 840 | – | – | –
CC(=O)N(Cc1ccccc1C(=O)N[C@H](/C=C/S(=O)(=O)c1ccccc1)CCc1ccccc1)C(C)=O | – | 36000 | 5700 | 940 | – | – | –
O=C(NCc1ccccc1C(=O)N[C@H](/C=C(\F)S(=O)(=O)c1ccccc1)CCc1ccccc1)c1ccncc1 | < 10 | – | – | 430 | – | – | Ki (Procathepsin L [11]): 14100 nM
O=C(NCc1ccccc1C(=O)N[C@H](/C=C/S(=O)(=O)Oc1ccccc1)CCc1ccccc1)c1ccc2c(c1)OCCO2 | – | – | – | 10 | 7.9 10^5/M/s | 0.0079 | Ki (Cathepsin B [7]): 800 nM; Kdiss (Cathepsin B [8]): 1.64 10^4/M/s; inhibition [9]: 31%; Ki (Procathepsin L [11]): 310 nM; inhibition [18]: 12%; inhibition [13]: 43%; Kinact (Cathepsin B [14]): 0.013 s⁻¹; inhibition [4]: Active; Kinact (Procathepsin L [15]): 0.0104 s⁻¹; Second-order inactivation rate constant (Procathepsin L [16]): 3.34 10^4/M/s
CN1CCN(C(=O)NCc2ccccc2C(=O)N[C@H](/C=C/S(=O)(=O)Cc2ccccc2)CCc2ccccc2)CC1 | – | – | – | 318 | 0.16 10^5/M/s | 0.005 | –
O=C(NCc1ccccc1C(=O)N[C@H](/C=C(\F)S(=O)(=O)c1ccccc1)CCc1ccccc1)c1cc(F)cc(F)c1 | – | – | – | 601 | – | – | –
O=C(NCc1ccccc1C(=O)N[C@H](/C=C(\F)S(=O)(=O)c1ccccc1)CCc1ccccc1)c1ccccc1 | < 10 | 43000 | 3300 | 568 | – | – | Ki (Procathepsin L [11]): 8800 nM; inhibition [13]: 25%
O=C(NCc1ccccc1C(=O)N[C@H](/C=C/S(=O)(=O)Oc1ccccc1)CCc1ccccc1)c1ccncc1 | – | – | 4200 | 9 | – | – | Ki (Cathepsin B [7]): 1010 nM; inhibition [9]: 26%; Ki (Procathepsin L [11]): 1150 nM; inhibition [13]: 41%
O=C(NCc1ccccc1C(=O)N[C@H](/C=C/S(=O)(=O)c1ccccc1)CCc1ccccc1)c1ccccc1 | – | > 100000 | 3600 | 100 | – | – | Ki (Cathepsin B [7]): 1980 nM; inhibition [19]: 23%; Ki (Procathepsin L [11]): 1490 nM; inhibition [18]: 14%; inhibition [13]: 39%
O=C(O)c1cccc(C(=O)NCc2ccccc2C(=O)N[C@H](/C=C/S(=O)(=O)c2ccccc2)CCc2ccccc2)c1 | – | > 100000 | 15000 | 7430 | – | – | –

Compound | inhibition (Cathepsin B [1]) [%] | CC50 at 48 h [2] [nM] | EC50 [3] [nM] | Ki (Rhodesain) [nM] | Second-order inactivation rate constant (kinact/Ki) [10] | Kinact [12] [s⁻¹] | other results
O=C(NCc1ccccc1C(=O)N[C@H](/C=C/S(=O)(=O)c1ccccc1)CCc1ccccc1)c1ccncc1 | 44 | – | – | 107 | 0.43 10^5/M/s | 0.0046 | Ki (Procathepsin L [11]): 2250 nM; Kinact (Procathepsin L [15]): 0.0026 s⁻¹; Second-order inactivation rate constant (Procathepsin L [16]): 1.16 10^3/M/s
O=C(Cc1ccccc1C(=O)N[C@H](/C=C/S(=O)(=O)c1ccccc1)CCc1ccccc1)Nc1ccc(C(=O)O)cc1 | – | – | 28000 | 290 | – | – | –
O=C(NCc1ccccc1C(=O)N[C@H](/C=C/S(=O)(=O)Cc1ccccc1)CCc1ccccc1)c1ccc2c(c1)OCCO2 | < 10 | – | – | 59 | 0.64 10^5/M/s | 0.0038 | inhibition (Procathepsin L [5]): 39%
O=C(NCc1ccccc1C(=O)N[C@H](/C=C(\F)S(=O)(=O)Oc1ccccc1)CCc1ccccc1)c1ccncc1 | – | > 100000 | 1800 | 916 | – | – | –
O=C(NCc1ccccc1C(=O)N[C@H](/C=C(\F)S(=O)(=O)Cc1ccccc1)CCc1ccccc1)c1cc(F)cc(F)c1 | – | – | – | 608 | – | – | –
O=C(NCc1ccccc1C(=O)N[C@H](/C=C/S(=O)(=O)Cc1ccccc1)CCc1ccccc1)c1cc(F)cc(F)c1 | < 10 | – | – | 356 | 0.35 10^5/M/s | 0.0125 | inhibition (Procathepsin L [5]): 31%
O=C(NCc1ccccc1C(=O)N[C@H](/C=C/S(=O)(=O)Oc1ccccc1)CCc1ccccc1)c1cc(F)cc(F)c1 | – | – | – | 15 | 7.8 10^5/M/s | 0.0117 | Ki (Cathepsin B [7]): 760 nM; Kdiss (Cathepsin B [8]): 9.34 10^3/M/s; inhibition [9]: 35%; Ki (Procathepsin L [11]): 560 nM; inhibition [18]: 14%; inhibition [13]: 33%; Kinact (Cathepsin B [14]): 0.0071 s⁻¹; Kinact (Procathepsin L [15]): 0.0022 s⁻¹; Second-order inactivation rate constant (Procathepsin L [16]): 3.92 10^3/M/s
CN1CCN(C(=O)N[C@@H](Cc2ccccc2)C(=O)N[C@H](/C=C/S(=O)(=O)c2ccccc2)CCc2ccccc2)CC1 [K-777] | – | 41000 | – | – | – | – | inhibition [4]: Active
O=C(O)c1ccc(C(=O)NCc2ccccc2C(=O)N[C@H](/C=C/S(=O)(=O)c2ccccc2)CCc2ccccc2)cc1 | – | – | – | 4030 | 0.0077 10^5/M/s | 0.0031 | –
O=C(NCc1ccccc1C(=O)N[C@H](/C=C(\F)S(=O)(=O)Cc1ccccc1)CCc1ccccc1)c1ccc2c(c1)OCCO2 | < 10 | – | – | 491 | – | – | inhibition [4]: Active; inhibition (Procathepsin L [5]): 15%; inhibition [6]: Active
O=C(NCc1ccccc1C(=O)N[C@H](/C=C/S(=O)(=O)Cc1ccccc1)CCc1ccccc1)c1ccccc1 | – | – | – | 389 | 0.24 10^5/M/s | 0.0095 | –
O=C(NCc1ccccc1C(=O)N[C@H](/C=C(\F)S(=O)(=O)c1ccccc1)CCc1ccccc1)c1ccc2c(c1)OCCO2 | < 10 | – | – | 339 | – | – | inhibition [19]: 14%; inhibition [13]: 34%; inhibition [4]: Active; inhibition (Procathepsin L [5]): 31%; inhibition [6]: Active
O=C(NCc1ccccc1C(=O)N[C@H](/C=C(\F)S(=O)(=O)Oc1ccccc1)CCc1ccccc1)c1cc(F)cc(F)c1 | < 10 | – | – | 638 | – | – | inhibition (Procathepsin L [5]): 14%
O=C(NCc1ccccc1C(=O)N[C@H](/C=C/S(=O)(=O)Cc1ccccc1)CCc1ccccc1)c1ccncc1 | – | – | – | 436 | 0.14 10^5/M/s | 0.006 | –
O=C(Cc1ccccc1C(=O)N[C@H](/C=C/S(=O)(=O)c1ccccc1)CCc1ccccc1)Nc1cccc(C(=O)O)c1 | – | – | > 40000 | 17600 | – | – | –
CNC(=O)Cc1ccccc1C(=O)N[C@H](/C=C/S(=O)(=O)c1ccccc1)CCc1ccccc1 | – | > 100000 | 13000 | 470 | – | – | –
